Measured values reported in the supplement of paper PMC5662764.
± gives the standard deviation of the averaged measurements.

How the values were obtained:
Assay in all cases: normalised growth rate inhibition (GR value) relative to DMSO control (GR (1 = untreated growth, 0 = cytostasis, <0 = cytotoxic)); higher = less growth inhibition
Conditions in all cases: 72 h
[1] = tested on: MCF7
Protocol: (§1)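 Breast cancer cell lines (BT-20, Hs 578T, MCF 10A, MCF7, MDA-MB-231, SK-BR-3) were plated in 384-well plates and treated 24 h later with drugs at six concentrations (0.04-10 µM). Viable cells were counted by Hoechst/dead-cell-stain imaging at 0 and 72 h. Counts were normalised to DMSO controls on the same plate to give the relative cell count and the growth-rate inhibition (GR) value; technical plate triplicates were averaged for each biological replicate.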

[2] = tested on: BT20
Protocol: as §1

[3] = tested on: HS578T
Protocol: as §1

[4] = tested on: MDAMB231
Protocol: as §1

[5] = tested on: MCF10A
Protocol: as §1

[6] = tested on: SKBR3
Protocol: as §1

| Structure (SMILES) | normalised growth rate inhibition ([1]; 0.04 µM) | normalised growth rate inhibition ([1]; 0.12 µM) | normalised growth rate inhibition ([1]; 0.37 µM) | normalised growth rate inhibition ([1]; 1.11 µM) | normalised growth rate inhibition ([1]; 3.33 µM) | normalised growth rate inhibition ([1]; 10 µM) | normalised growth rate inhibition ([2]; 0.04 µM) | normalised growth rate inhibition ([2]; 0.12 µM) | normalised growth rate inhibition ([2]; 0.37 µM) | normalised growth rate inhibition ([2]; 1.11 µM) | normalised growth rate inhibition ([2]; 3.33 µM) | normalised growth rate inhibition ([2]; 10 µM) | normalised growth rate inhibition ([3]; 0.04 µM) | normalised growth rate inhibition ([3]; 0.12 µM) | normalised growth rate inhibition ([3]; 0.37 µM) | normalised growth rate inhibition ([3]; 1.11 µM) | normalised growth rate inhibition ([3]; 3.33 µM) | normalised growth rate inhibition ([3]; 10 µM) | normalised growth rate inhibition ([4]; 0.04 µM) | normalised growth rate inhibition ([4]; 0.12 µM) | normalised growth rate inhibition ([4]; 0.37 µM) | normalised growth rate inhibition ([4]; 1.11 µM) | normalised growth rate inhibition ([4]; 3.33 µM) | normalised growth rate inhibition ([4]; 10 µM) | normalised growth rate inhibition ([5]; 0.04 µM) | normalised growth rate inhibition ([5]; 0.12 µM) | normalised growth rate inhibition ([5]; 0.37 µM) | normalised growth rate inhibition ([5]; 1.11 µM) | normalised growth rate inhibition ([5]; 3.33 µM) | normalised growth rate inhibition ([5]; 10 µM) | normalised growth rate inhibition ([6]; 0.04 µM) | normalised growth rate inhibition ([6]; 0.12 µM) | normalised growth rate inhibition ([6]; 0.37 µM) | normalised growth rate inhibition ([6]; 1.11 µM) | normalised growth rate inhibition ([6]; 3.33 µM) | normalised growth rate inhibition ([6]; 10 µM) |
| --- | --- | --- | --- | --- | --- | --- | --- | --- | --- | --- | --- | --- | --- | --- | --- | --- | --- | --- | --- | --- | --- | --- | --- | --- | --- | --- | --- | --- | --- | --- | --- | --- | --- | --- | --- | --- |
| N#CCNC(=O)c1ccc(-c2ccnc(Nc3ccc(N4CCOCC4)cc3)n2)cc1 [CYT387] | 0.912 ± 0.024 | 0.896 ± 0.098 | 0.83 ± 0.092 | 0.628 ± 0.083 | 0.332 ± 0.2 | 0.0654 ± 0.039 | 0.926 ± 0.072 | 0.871 ± 0.038 | 0.837 ± 0.083 | 0.748 ± 0.046 | 0.576 ± 0.073 | 0.0633 ± 0.1 | 0.931 ± 0.031 | 0.851 ± 0.022 | 0.762 ± 0.024 | 0.638 ± 0.043 | 0.447 ± 0.12 | 0.046 ± 0.14 | 0.859 ± 0.059 | 0.777 ± 0.053 | 0.678 ± 0.087 | 0.527 ± 0.18 | 0.36 ± 0.28 | -0.112 ± 0.2 | 0.959 ± 0.023 | 0.924 ± 0.032 | 0.868 ± 0.038 | 0.799 ± 0.047 | 0.649 ± 0.1 | 0.185 ± 0.11 | 0.841 ± 0.15 | 0.8 ± 0.16 | 0.789 ± 0.12 | 0.687 ± 0.12 | 0.509 ± 0.11 | 0.0674 ± 0.037 |
| CC[C@H](CO)Nc1nc(NCc2ccccc2)c2ncn(C(C)C)c2n1 [roscovitine] | 1.07 ± 0.066 | 1.02 ± 0.024 | 0.922 ± 0.048 | 0.818 ± 0.068 | 0.717 ± 0.087 | -0.102 ± 0.15 | 1.022 ± 0.0042 | 0.9967 ± 0.0034 | 0.913 ± 0.029 | 0.844 ± 0.084 | 0.759 ± 0.062 | 0.197 ± 0.044 | 1.009 ± 0.01 | 1.01 ± 0.016 | 0.975 ± 0.011 | 0.954 ± 0.034 | 0.95 ± 0.054 | 0.688 ± 0.062 | 1.03 ± 0.035 | 0.971 ± 0.03 | 0.926 ± 0.03 | 0.88 ± 0.033 | 0.811 ± 0.077 | 0.401 ± 0.068 | 0.9943 ± 0.0068 | 0.9805 ± 0.0066 | 0.9621 ± 0.0088 | 0.955 ± 0.014 | 0.926 ± 0.025 | 0.439 ± 0.19 | 1.04 ± 0.093 | 1.04 ± 0.045 | 0.979 ± 0.085 | 0.852 ± 0.043 | 0.677 ± 0.023 | 0.146 ± 0.18 |
| COc1cc(OC)cc(-c2ccc3ncc4ccc(=O)n(-c5ccc(N6CCNCC6)c(C(F)(F)F)c5)c4c3c2)c1 [JW-7-24-1] | 0.607 ± 0.09 | 0.551 ± 0.07 | 0.373 ± 0.12 | 0.236 ± 0.08 | 0.139 ± 0.078 | -0.135 ± 0.0036 | 0.797 ± 0.057 | 0.876 ± 0.078 | 0.822 ± 0.08 | 0.755 ± 0.18 | 0.61 ± 0.25 | -0.0316 ± 0.17 | 0.929 ± 0.017 | 0.89 ± 0.039 | 0.765 ± 0.034 | 0.581 ± 0.029 | 0.384 ± 0.037 | -0.198 ± 0.14 | 0.823 ± 0.12 | 0.859 ± 0.088 | 0.754 ± 0.09 | 0.624 ± 0.12 | 0.543 ± 0.11 | -0.122 ± 0.17 | 0.986 ± 0.034 | 0.986 ± 0.044 | 0.952 ± 0.069 | 0.911 ± 0.11 | 0.84 ± 0.15 | 0.176 ± 0.17 | 0.615 ± 0.034 | 0.695 ± 0.042 | 0.591 ± 0.047 | 0.457 ± 0.038 | 0.273 ± 0.041 | -0.224 ± 0.14 |
| CNC(=O)c1cc(Oc2ccc(NC(=O)Nc3ccc(Cl)c(C(F)(F)F)c3)cc2)ccn1 [sorafenib] | 0.946 ± 0.023 | 0.91 ± 0.057 | 0.936 ± 0.028 | 0.906 ± 0.072 | 0.852 ± 0.089 | 0.247 ± 0.12 | 0.936 ± 0.017 | 0.931 ± 0.023 | 0.855 ± 0.052 | 0.849 ± 0.036 | 0.836 ± 0.026 | 0.429 ± 0.35 | 1.13 ± 0.076 | 1.14 ± 0.061 | 1.16 ± 0.098 | 1.18 ± 0.12 | 1.15 ± 0.11 | 0.874 ± 0.093 | 1.01 ± 0.045 | 0.917 ± 0.13 | 0.927 ± 0.11 | 0.938 ± 0.18 | 0.918 ± 0.13 | 0.801 ± 0.12 | 1.02 ± 0.046 | 0.993 ± 0.048 | 0.978 ± 0.047 | 0.97 ± 0.034 | 0.95 ± 0.038 | 0.65 ± 0.1 | 0.908 ± 0.048 | 0.954 ± 0.093 | 0.993 ± 0.07 | 1.03 ± 0.074 | 1.04 ± 0.084 | 0.212 ± 0.27 |
